Laboratory results as given in publication PMC12692861, “Biotin-Linked Ursolic Acid Conjugates as Selective Anticancer Agents and Target-Identification Tools for Cancer Therapy” (Molecules, 2025).

Tests used:
HSP 90-beta (HSP90β) = HSP 90-beta (HSP90β) (Homo sapiens, UniProt P08238); assay: Streptavidin pulldown proteomics (LC-MS/MS), 5637 cells; type: binding; settings: 5637, 50 µM
Procedure: (§1) We used proteomics to identify potential molecular targets of 5c. A pulldown assay with streptavidin-agarose-coated magnetic beads was performed. Briefly, 5637 and MB49 cells were incubated with 50 µM 5c for 10 min and 1 h. After incubation, the cells were rinsed three times with cold phosphate-buffered saline (PBS), and cell lysates were prepared and clarified by centrifugation to remove cellular debris, including nuclei. The clarified lysates were incubated with streptavidin-coated magnetic beads to selectively bind biotinylated contents. Bound proteins were separated from unbound proteins through thorough bead washing. Proteins attached to the beads were eluted and analyzed on an Orbitrap Fusion Tribrid mass spectrometer (Thermo Scientific, New York, NY, USA) coupled with an Ultimate 3000 nano-UPLC system. Samples were trapped on a PepMap100 C18 trap column (5 µm, 0.3 × 5 mm) and separated on a PepMap RSLC C18 column (2 µm, 75 µm × 150 mm) using a gradient from 2 to 40% acetonitrile with 0.1% formic acid over 120 min at […] and 40 °C. MS data were acquired in positive mode using data-dependent acquisition (DDA), with precursor scans at 120,000 FWHM (400–2000 m/z), and MS/MS scans in top-speed mode (3 s cycle) using HCD fragmentation (NCE 32%). Proteins were identified and quantified based on peptide spectral matches (PSMs), and fold enrichment compared to controls was calculated to evaluate interaction strength.
(§2) The 5637 and MB49 cells were cultured and treated with higher concentrations of 5c (50 µM) for short period of times (10 min & 60 min) followed by whole cell lysis (WCL) preparation of both treated and untreated cells using modified RIPA buffer [NaCl (100mM), TrisCl (20mM, pH 7.4), EDTA (10 mM), TritonX-100 (0.5%), Glycerol (5%), Protease inhibitor cocktail (1x)] with gentle continuous rotation. The protein content of each WCL was estimated using Pierce™ BCA Protein Assay kit (Thermo-Scientific # 23225). The 100 µL of resuspended Dynabeads™ MyOne™ Streptavidin C1 (Invitrogen # 65001) were washed with PBST (PBS with 0.01% Tween™20) in a magnet stand as recommended in the manufacturer’s instructions. The washed beads were incubated with 200 µg of each WCL in separate tubes at room temperature for 2 h in a gentle end-over-end mixing. After incubation, beads were washed 3–5 times with PBST (0.01% Tween-20) on a magnetic stand and beads were decanted by after spinning and magnetization. The samples were stored at −80 °C till further analysis using LC-MS/MS by the Proteomics and Mass Spectrometry Core Laboratory of Augusta University.

[1] = molecular target: Ras GTPase-activating-like protein IQGAP1 (Homo sapiens, UniProt P46940); assay: as above; type: binding; settings: 5637, 50 µM
Ras GTPase-activating-like protein IQGAP1, sequence (P46940 whole entry): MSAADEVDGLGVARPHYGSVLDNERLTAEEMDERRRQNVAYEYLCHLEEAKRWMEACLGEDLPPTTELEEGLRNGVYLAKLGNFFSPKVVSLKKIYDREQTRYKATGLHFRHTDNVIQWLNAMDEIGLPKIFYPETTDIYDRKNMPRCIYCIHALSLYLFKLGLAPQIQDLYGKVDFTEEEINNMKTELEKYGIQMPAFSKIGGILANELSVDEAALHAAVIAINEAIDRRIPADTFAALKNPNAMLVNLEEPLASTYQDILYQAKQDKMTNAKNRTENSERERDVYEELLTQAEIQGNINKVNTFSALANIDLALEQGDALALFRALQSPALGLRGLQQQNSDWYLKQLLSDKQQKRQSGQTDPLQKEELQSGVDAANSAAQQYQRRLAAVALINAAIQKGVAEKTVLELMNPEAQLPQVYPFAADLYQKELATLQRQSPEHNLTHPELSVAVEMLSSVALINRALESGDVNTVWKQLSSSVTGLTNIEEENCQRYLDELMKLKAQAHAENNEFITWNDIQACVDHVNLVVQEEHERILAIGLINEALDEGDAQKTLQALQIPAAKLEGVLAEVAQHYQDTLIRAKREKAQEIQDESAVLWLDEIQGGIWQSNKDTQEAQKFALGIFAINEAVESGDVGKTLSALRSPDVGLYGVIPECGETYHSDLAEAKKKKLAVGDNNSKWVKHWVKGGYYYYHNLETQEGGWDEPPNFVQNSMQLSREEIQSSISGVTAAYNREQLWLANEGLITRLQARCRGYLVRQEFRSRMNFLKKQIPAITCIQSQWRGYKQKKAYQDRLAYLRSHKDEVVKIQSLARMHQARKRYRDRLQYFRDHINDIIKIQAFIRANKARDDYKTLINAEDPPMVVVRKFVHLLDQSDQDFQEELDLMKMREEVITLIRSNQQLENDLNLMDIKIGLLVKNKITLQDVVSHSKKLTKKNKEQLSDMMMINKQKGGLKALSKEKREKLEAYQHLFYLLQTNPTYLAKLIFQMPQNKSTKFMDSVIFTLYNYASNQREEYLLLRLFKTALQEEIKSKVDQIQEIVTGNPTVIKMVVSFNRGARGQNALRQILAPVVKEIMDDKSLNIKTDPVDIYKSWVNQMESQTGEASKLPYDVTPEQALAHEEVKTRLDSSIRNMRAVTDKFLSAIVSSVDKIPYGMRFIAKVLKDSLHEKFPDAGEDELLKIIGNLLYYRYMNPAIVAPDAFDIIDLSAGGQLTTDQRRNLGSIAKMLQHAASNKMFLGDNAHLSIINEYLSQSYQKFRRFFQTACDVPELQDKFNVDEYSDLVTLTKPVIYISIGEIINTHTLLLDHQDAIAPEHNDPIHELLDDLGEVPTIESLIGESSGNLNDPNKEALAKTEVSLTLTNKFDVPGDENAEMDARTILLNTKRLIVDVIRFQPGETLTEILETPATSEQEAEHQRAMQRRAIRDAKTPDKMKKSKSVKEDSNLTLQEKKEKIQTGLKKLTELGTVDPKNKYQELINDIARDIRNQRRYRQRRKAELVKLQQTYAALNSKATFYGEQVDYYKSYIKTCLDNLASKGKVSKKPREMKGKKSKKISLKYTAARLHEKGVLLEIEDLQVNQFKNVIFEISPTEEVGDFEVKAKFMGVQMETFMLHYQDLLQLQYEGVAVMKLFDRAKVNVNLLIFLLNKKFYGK
Procedure: as §1, §2

[2] = molecular target: Eukaryotic translation initiation factor 5B (eIF5B) (Homo sapiens, UniProt O60841); assay: as above; type: binding; settings: 5637, 50 µM
Eukaryotic translation initiation factor 5B (eIF5B), sequence (O60841 whole entry): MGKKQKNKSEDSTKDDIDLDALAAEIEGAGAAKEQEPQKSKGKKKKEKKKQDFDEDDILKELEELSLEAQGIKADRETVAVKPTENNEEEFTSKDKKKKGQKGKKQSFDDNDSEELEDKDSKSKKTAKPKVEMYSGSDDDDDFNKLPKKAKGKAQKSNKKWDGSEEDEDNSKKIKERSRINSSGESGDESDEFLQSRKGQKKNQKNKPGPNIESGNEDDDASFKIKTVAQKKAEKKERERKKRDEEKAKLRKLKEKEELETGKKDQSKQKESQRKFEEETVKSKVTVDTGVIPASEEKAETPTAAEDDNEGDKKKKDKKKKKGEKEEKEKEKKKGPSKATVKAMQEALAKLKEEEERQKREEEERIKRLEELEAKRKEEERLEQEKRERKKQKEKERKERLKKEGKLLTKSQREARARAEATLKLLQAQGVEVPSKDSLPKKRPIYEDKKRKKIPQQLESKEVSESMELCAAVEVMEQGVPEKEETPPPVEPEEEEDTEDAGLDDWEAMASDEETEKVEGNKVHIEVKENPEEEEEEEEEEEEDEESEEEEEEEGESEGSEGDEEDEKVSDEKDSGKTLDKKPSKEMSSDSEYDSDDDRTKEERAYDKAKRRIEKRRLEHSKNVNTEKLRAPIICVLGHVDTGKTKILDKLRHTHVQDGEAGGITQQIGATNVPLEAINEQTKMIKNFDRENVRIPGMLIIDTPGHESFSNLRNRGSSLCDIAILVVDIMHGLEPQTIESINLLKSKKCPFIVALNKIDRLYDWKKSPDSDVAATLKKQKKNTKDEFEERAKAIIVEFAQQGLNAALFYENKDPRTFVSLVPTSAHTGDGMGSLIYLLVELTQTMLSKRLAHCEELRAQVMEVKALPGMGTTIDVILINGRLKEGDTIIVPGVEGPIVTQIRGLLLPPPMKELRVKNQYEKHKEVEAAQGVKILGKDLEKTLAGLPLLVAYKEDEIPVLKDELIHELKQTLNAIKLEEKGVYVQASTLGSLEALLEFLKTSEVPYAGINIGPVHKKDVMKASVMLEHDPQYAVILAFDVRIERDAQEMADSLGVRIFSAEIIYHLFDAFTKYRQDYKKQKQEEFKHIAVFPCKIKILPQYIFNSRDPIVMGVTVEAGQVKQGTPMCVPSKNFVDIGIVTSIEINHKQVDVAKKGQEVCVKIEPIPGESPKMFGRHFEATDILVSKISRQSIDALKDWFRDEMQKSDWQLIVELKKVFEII
Procedure: as §1, §2

HSP 90-alpha (HSP90α) [3] = molecular target: HSP 90-alpha (HSP90α) (Homo sapiens, UniProt P07900); assay: as above; type: binding; settings: 5637, 50 µM
Procedure: as §1, §2

[4] = molecular target: Elongation factor 1-delta (EF1δ) (Homo sapiens, UniProt P29692); assay: as above; type: binding; settings: 5637, 50 µM
Procedure: as §1, §2

[5] = molecular target: D-3-phosphoglycerate dehydrogenase (Homo sapiens, UniProt O43175); assay: as above; type: binding; settings: 5637, 50 µM
D-3-phosphoglycerate dehydrogenase (Homo sapiens, UniProt O43175), sequence (O43175 whole entry): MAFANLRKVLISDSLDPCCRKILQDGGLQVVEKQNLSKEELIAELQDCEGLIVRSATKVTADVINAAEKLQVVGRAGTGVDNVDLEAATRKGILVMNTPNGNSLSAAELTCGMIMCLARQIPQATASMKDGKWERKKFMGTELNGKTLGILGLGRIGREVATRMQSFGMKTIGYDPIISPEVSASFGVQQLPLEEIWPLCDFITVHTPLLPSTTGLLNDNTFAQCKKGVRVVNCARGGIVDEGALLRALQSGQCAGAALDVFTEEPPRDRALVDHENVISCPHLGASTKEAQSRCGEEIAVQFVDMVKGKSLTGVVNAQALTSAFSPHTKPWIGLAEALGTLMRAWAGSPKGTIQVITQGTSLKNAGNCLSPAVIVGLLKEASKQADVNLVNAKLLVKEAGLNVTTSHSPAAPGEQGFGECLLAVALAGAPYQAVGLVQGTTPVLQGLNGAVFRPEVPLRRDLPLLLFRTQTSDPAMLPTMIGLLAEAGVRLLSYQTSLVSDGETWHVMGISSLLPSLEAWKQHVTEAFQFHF
Procedure: as §1, §2

[6] = molecular target: Heterogeneous nuclear ribonucleoprotein U (HNRNPU) (Homo sapiens, UniProt Q00839); assay: as above; type: binding; settings: 5637, 50 µM
Procedure: as §1, §2

[7] = molecular target: Elongation factor 1-gamma (EF1γ) (Homo sapiens, UniProt P26641); assay: as above; type: binding; settings: 5637, 50 µM
Procedure: as §1, §2

ATP synthase subunit O = ATP synthase subunit O (Homo sapiens, UniProt P48047); assay: as above; type: binding; settings: 5637, 50 µM
Procedure: as §1, §2

[8] = molecular target: T-complex protein 1 subunit theta (Homo sapiens, UniProt P50990); assay: as above; type: binding; settings: 5637, 50 µM
Procedure: as §1, §2

[9] = molecular target: Ribosomal L1 domain-containing protein 1 (RSL1D1) (Homo sapiens, UniProt O76021); assay: as above; type: binding; settings: 5637, 50 µM
Procedure: as §1, §2

[10] = test system: ATP-binding cassette sub-family A; assay: as above; parameters: species or system human; settings: 5637, 50 µM
Procedure: as §1, with “MS data were acquired in positive mode using data-dependent acquisition (DDA), with precursor scans at 120,000 FWHM (400–2000 m/z), and MS/MS scans in top-speed mode (3 s cycle) using HCD fragmentation (NCE 32%).” left out, “strength. […]” for “strength.”

[11] = molecular target: Heterogeneous nuclear ribonucleoprotein U (HNRNPU) (Mus musculus, UniProt Q8VEK3); assay: Streptavidin pulldown proteomics (LC-MS/MS), MB49 cells; type: binding, murine; settings: MB-49, 50 µM
Heterogeneous nuclear ribonucleoprotein U (HNRNPU) (Mus musculus, UniProt Q8VEK3), sequence (Q8VEK3 whole entry): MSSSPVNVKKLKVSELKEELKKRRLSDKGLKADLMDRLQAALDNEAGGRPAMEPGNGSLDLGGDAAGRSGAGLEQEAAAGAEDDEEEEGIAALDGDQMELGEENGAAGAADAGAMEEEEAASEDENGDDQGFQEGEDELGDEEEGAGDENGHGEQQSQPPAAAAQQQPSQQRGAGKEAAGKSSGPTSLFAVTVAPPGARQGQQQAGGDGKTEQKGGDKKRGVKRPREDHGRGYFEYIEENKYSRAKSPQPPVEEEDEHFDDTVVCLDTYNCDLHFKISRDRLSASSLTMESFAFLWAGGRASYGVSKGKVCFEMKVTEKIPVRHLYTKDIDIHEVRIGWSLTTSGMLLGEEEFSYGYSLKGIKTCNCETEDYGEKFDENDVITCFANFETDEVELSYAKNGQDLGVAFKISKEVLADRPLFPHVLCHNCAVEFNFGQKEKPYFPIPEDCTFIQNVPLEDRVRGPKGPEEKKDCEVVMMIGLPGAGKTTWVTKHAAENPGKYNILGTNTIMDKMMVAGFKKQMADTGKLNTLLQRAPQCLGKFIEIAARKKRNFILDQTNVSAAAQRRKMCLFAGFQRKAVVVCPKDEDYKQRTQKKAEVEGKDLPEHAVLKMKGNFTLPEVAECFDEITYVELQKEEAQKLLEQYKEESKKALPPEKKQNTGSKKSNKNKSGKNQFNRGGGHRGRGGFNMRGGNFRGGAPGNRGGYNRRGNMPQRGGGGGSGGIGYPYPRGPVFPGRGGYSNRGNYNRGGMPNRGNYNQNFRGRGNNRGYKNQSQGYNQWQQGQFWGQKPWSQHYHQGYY
Procedure: as §1, §2

[12] = molecular target: Elongation factor 1-gamma (EF1γ) (Mus musculus, UniProt Q9D8N0); assay: as above; type: binding, murine; settings: MB-49, 50 µM
Procedure: as §1, §2

[13] = molecular target: ATP synthase subunit beta (Mus musculus, UniProt P56480); assay: as above; type: binding, murine; settings: MB-49, 50 µM
Procedure: as §1, §2

HSP 90-alpha (HSP90α) [14] = molecular target: HSP 90-alpha (HSP90α) (Mus musculus, UniProt P07901); assay: as above; type: binding, murine; settings: MB-49, 50 µM
Procedure: as §1, §2

[15] = molecular target: Receptor of activated protein C kinase 1 (RACK1) (Mus musculus, UniProt P68040); assay: as above; type: binding, murine; settings: MB-49, 50 µM
Procedure: as §1, §2

HSC 71 = HSC 71 (Mus musculus, UniProt P63017); assay: as above; type: binding, murine; settings: MB-49, 50 µM
Procedure: as §1, §2

[16] = test system: Eukaryotic initiation factor 4A (eIF4A); assay: as above; type: binding, murine; settings: MB-49, 50 µM
Procedure: as §1, §2

Histone H2A.Z = Histone H2A.Z (Mus musculus, UniProt P0C0S6); assay: as above; type: binding, murine; settings: MB-49, 50 µM
Histone H2A.Z, sequence (P0C0S6 whole entry): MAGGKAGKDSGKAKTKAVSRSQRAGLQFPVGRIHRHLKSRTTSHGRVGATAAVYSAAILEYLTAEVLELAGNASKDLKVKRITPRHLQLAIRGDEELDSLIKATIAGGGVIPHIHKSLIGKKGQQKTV
Procedure: as §1, §2

[17] = test system: Coiled-coil domain-containing protein; assay: as above; type: binding, murine; settings: MB-49, 50 µM
Procedure: as §1, §2

[18] = molecular target: D-3-phosphoglycerate dehydrogenase (Mus musculus, UniProt Q61753); assay: as above; type: binding, murine; settings: MB-49, 50 µM
Procedure: as §1, §2

HSP 90-beta (HSP90β), sequence (P08238 whole entry, the tested form may be a part): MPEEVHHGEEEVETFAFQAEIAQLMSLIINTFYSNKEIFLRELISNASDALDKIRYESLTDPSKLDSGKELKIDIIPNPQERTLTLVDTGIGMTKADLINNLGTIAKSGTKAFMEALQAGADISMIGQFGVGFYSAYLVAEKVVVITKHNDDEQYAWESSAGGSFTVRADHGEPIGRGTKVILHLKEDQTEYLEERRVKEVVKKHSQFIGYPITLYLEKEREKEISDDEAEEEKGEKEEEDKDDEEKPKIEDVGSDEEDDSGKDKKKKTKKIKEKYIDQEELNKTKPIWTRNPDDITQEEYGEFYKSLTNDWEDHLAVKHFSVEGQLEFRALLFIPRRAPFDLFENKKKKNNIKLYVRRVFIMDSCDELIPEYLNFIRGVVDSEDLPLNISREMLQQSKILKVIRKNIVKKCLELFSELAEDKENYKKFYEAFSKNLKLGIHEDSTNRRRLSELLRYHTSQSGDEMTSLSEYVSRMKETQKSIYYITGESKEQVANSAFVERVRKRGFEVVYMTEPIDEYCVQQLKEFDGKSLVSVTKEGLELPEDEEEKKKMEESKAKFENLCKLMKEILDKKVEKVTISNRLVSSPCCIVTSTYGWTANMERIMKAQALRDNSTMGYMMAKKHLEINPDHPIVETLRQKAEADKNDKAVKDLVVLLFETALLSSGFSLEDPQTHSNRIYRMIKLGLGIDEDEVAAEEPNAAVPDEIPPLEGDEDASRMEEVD

`CC1CCC2(C(=O)OCCCCOC(=O)CCCCC3SCC4NC(=O)NC43)CCC3(C)C(=CCC4C5(C)CCC(O)C(C)(C)C5CCC43C)C2C1C` [Compound 5c, 4-((5-((3aS,4S,6aR)-2-Oxohexahydro-1H-thieno [3,4-d]imidazol-4-yl)pentanoyl)oxy) butyl 3-hydroxy-urs-12-en-28-oate] was tested, and the “Fold Change 10 min/Ctrl” value (HSP 90-beta (HSP90β)) was 93, the “Fold Change 1 h/Ctrl” value (HSP 90-beta (HSP90β)) was 97 and the “Fold Change 10 min/Ctrl” value [1] was 3.5. The “Fold Change 1 h/Ctrl” value [1] was 2.25, the “Fold Change 10 min/Ctrl” value [2] was 32 and the “Fold Change 1 h/Ctrl” value [2] was 34. For the same compound, the “Fold Change 10 min/Ctrl” value (HSP 90-alpha (HSP90α) [3]) was 119, the “Fold Change 1 h/Ctrl” value (HSP 90-alpha (HSP90α) [3]) was 111 and the “Fold Change 10 min/Ctrl” value [4] was 8. For the same compound, the “Fold Change 1 h/Ctrl” value [4] was 7, the “Fold Change 10 min/Ctrl” value [5] was 15 and the “Fold Change 1 h/Ctrl” value [5] was 10. For the same compound, the “Fold Change 10 min/Ctrl” value [6] was 4.33, the “Fold Change 1 h/Ctrl” value [6] was 4.33 and the “Fold Change 1 h/Ctrl” value [7] was 6. The “Fold Change 10 min/Ctrl” value (ATP synthase subunit O) was 3, the “Fold Change 1 h/Ctrl” value (ATP synthase subunit O) was 3 and the “Fold Change 10 min/Ctrl” value [8] was 14. The “Fold Change 1 h/Ctrl” value [8] was 12, the “Fold Change 10 min/Ctrl” value [9] was 5 and the “Fold Change 1 h/Ctrl” value [9] was 4. The “Fold Change 10 min/Ctrl” value [10] was 3, the “Fold Change 1 h/Ctrl” value [10] was 5 and the “Fold Change 10 min/Ctrl” value [11] was 2.38. The “Fold Change 1 h/Ctrl” value [11] was 2.13, the “Fold Change 1 h/Ctrl” value [12] was 1 and the “Fold Change 10 min/Ctrl” value [13] was 1.31. The “Fold Change 1 h/Ctrl” value [13] was 1.82, the “Fold Change 10 min/Ctrl” value (HSP 90-alpha (HSP90α) [14]) was 1.07 and the “Fold Change 1 h/Ctrl” value (HSP 90-alpha (HSP90α) [14]) was 1.25. The “Fold Change 10 min/Ctrl” value [15] was 0.88, the “Fold Change 1 h/Ctrl” value [15] was 1.29 and the “Fold Change 10 min/Ctrl” value (HSC 71) was 1.5. For the same compound, the “Fold Change 1 h/Ctrl” value (HSC 71) was 2, the “Fold Change 10 min/Ctrl” value [16] was 1 and the “Fold Change 1 h/Ctrl” value [16] was 3. The “Fold Change 10 min/Ctrl” value (Histone H2A.Z) was 1.86, the “Fold Change 1 h/Ctrl” value (Histone H2A.Z) was 1.20 and the “Fold Change 10 min/Ctrl” value [17] was 0. The “Fold Change 1 h/Ctrl” value [17] was 0, the “Fold Change 10 min/Ctrl” value [18] was 0.8 and the “Fold Change 1 h/Ctrl” value [18] was 1.6.
